Non-standard residues stand in square brackets, D forms with d. Residues, ends and D or L forms follow the SMILES beside them. *: point of attachment. Nle = CCCC[C@H](N)C(=O)O; Cbz = O=C(OCc1ccccc1)*

The source of these data is patent US20070275887A1, “Method of Inhibiting Secretase Activity” (priority 2003, published 2007).

The subject of test [1] is Embryonic fibroblasts (MEFs) from wild-type and synoviolin gene-deficient mice. Kind of test: Effect of a γ-secretase inhibitor on cell proliferation activity (Alamer Blue) in wild-type and synoviolin-deficient MEFs. It is filed as cell-based, mouse. Particulars: MEFs 1×10^3 cells/well, treated 24 hours, Alamer Blue absorbance after 2 hours; Syno −/− compared with Syno +/+ (FIG. 5). The method, then:
Since there are ethical objections to sensitivity measurement tests using the brains of Alzheimer's patients, another evaluation system needs to be used for evaluating the sensitivity of the secretase inhibitor. The inventors therefore used an evaluation system in which cells were treated with a secretase inhibitor and cell proliferation was used as the marker of secretase inhibition. There are no particular limits on the type of secretase here, and examples include β-secretase and γ-secretase. Consequently, the secretase inhibitor can be either a β-secretase inhibitor or a γ-secretase inhibitor. There are no particular limits on the secretase inhibitor, and examples include L-685,458 (Peptide Institute), (3,5-Difluorophenylacetyl)-Ala-Phg-OBu^t [DAPT] (Peptide Institute), Lys-Thr-Glu-Glu-Ile-Ser-Glu-Val-Asn-Sta-Val-Ala-Glu-Phe (Peptide Institute), Z-Leu-Leu-Nle-CHO (Wako) and the like.
Secretase activity is judged to have been inhibited when cell proliferation activity is suppressed. […]
Embryonic fibroblasts (MEFs) obtained from synoviolin gene-introduced mice (wild-type mice) and synoviolin gene-deficient mice were inoculated to 1×10^3 cells/well on 96-well plates, and cultured overnight. After culture the cells were treated with a γ-secretase inhibitor (Z-Leu-Leu-Nle-CHO, Wako) and cultured for 24 hours, after which Alamer Blue was added and absorbance was measured after 2 hours.

Test [2] addresses T1, FLAG-tagged synoviolin (human, UniProt Q86TM6 1-617).
T1 construct: not shown: FLAG tag
Description: co-immunoprecipitation (anti-HA or anti-FLAG) and Western blotting from HEK293T cells. The method, then: An HA tag was attached to the N-terminal of this gene, which was inserted into a pcDNA3 vector. Next, Ha-tagged Herp, Herp(-bind) and a blank vector were each strongly expressed together with FLAG-tagged synoviolin in HEK293T cells. After 24 hours whole cell extract (WCE) was extracted, expression of each protein was confirmed, and immunoprecipitation was performed with anti-HA antibodies or anti-FLAG antibodies.
Background: A western blot detects proteins with antibodies after separation by electrophoresis.

T1 sequence (Q86TM6 whole entry E545G): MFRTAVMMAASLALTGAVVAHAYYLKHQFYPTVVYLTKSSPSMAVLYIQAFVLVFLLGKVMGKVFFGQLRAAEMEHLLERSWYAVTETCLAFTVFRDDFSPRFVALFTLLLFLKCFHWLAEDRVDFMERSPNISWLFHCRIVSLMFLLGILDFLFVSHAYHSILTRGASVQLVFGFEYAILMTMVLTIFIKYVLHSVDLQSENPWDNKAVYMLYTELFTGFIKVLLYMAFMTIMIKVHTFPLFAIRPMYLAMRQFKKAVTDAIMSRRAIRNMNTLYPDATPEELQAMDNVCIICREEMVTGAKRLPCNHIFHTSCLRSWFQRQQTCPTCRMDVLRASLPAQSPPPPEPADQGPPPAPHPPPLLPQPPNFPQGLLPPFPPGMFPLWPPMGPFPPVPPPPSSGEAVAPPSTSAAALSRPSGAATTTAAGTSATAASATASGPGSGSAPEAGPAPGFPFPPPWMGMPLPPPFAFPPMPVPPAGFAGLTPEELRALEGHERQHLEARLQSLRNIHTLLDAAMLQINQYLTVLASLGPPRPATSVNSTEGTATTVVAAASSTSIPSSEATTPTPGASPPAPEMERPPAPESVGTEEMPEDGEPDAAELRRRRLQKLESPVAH

On to `CCCC[C@@H](C=O)NC(=O)[C@H](CC(C)C)NC(=O)[C@H](CC(C)C)NC(=O)OCc1ccccc1` [Z-Leu-Leu-Nle-CHO] (Cbz-Leu-Leu-[Nle]-aldehyde), for which the “effect of the γ-secretase inhibitor on cell proliferation activity” value in test [1] is listed as “greater in the cells derived from synoviolin-deficient mice than in the cells derived from wild-type mice”.

B1: HA-tagged Herp(-bind) (other)
chain: MESETEPEPVTLLVKSPNQRHRDLELSGDRGWSVGHLKAHLSRVYPERPRPEDQRLIYSGKLLLDHQCLRDLLPKQEKRHVLHLVCNVKSPSKMPEINAKVAESTEEPAGSNRGQYPEDSSSDGLRQREVLRNLSSPGWENISRPEAAQQAFQGLGPGFSAQEIPVVSAPAPAPIHNQFPAENQPANQNAAPQVVVNPGANQNLRMNAQGGPIVEEDDEINRDWLDWTYSAATFSVFLSILYFYSSLSRFLMVMGATVVMYLHHVGWFPFRPRPVQNFPNDGPPPDVVNQDPNNNLQEGTDPETEDPNHLPPDRDVLDGEQTSPSFMSTAWLVFKTFFASLLPEGPPAIAN
notes: not shown: HA tag at the N-terminal
On to B1, for which, in test [2], the binding result is recorded as “no binding”.
